{
  "source": "patent US20250287947A1",
  "about": "“BIOCIDES AND ADHESIVE BINDING THEREOF” (EBERHARD KARLS UNIVERSITÄT TÜBINGEN MEDIZINISCHE FAKULTÄT, priority 2022, published 2025)",
  "key": {"[1]": {"experiment": "Interactions between salt concentration, temperature and pH on the state of matter of Py-C12 (Example 3)", "type": "physicochemical", "parameters": "key: X: liquid; o: solid", "settings": "5% w/v", "method": "[…] The samples were combined with NaCl solutions using concentrations between 0 and 3 M in water and subsequently incubated at temperatures between 24° C. and 45° C."}, "[2]": {"system": "β-galactosidase-expressing E. coli strain", "experiment": "Wash resistance and biocidal activity of Py-C12 treated silk fabric (Example 17)", "type": "cell-based", "settings": "treated with 1% (w/v) free base; washed 10, 20 and 30 times with water 15 min; E. coli 3 days at 37° C.", "method": "In a first step, 1% (w/v) Py-C12 free base in water was warmed to 50° C. to obtain a liquid solution. After incubation with the Py-C12 solution, the samples were cooled to room temperature upon which the liquid Py-C12 was converted into a solid phase and thus immobilized to the material. After drying, samples were washed with water at room temperature 10, 20, and 30 times for 15 minutes each time. Thereafter, all samples were inoculated with a β-galactosidase-expressing E. coli strain and then incubated for 3 days at 37° C."}, "[3]": {"system": "β-galactosidase-expressing E. coli strain", "experiment": "Wash resistance and biocidal activity of Py-C12 treated cotton textile (Example 6)", "type": "cell-based", "settings": "treated with 1% (w/v) pH 7.0, E. coli 3 days at 37° C.", "method": "Round sterile cotton textile samples were treated with a liquid Py-C12 solution (1% (w/v) in water; pH 7.0) followed by intensive washing steps. For controls, samples were treated with water instead of Py-C12.\nFor testing wash resistance in an aqueous system samples were incubated in water for 20 h at 50° C. and then washed 16 times with water at 37° C. for 5 to 10 minutes each time.\nFor testing wash resistance in an alcoholic/acidic system, samples were washed 8 times with 2-propanol/1 mN HCl solution and 8 times with water in total.\nAfter all washing steps, all samples were inoculated with a β-galactosidase-expressing E. coli strain and then incubated for 3 days at 37° C."}, "[4]": {"experiment": "Modulation of the state of matter by temperature shift (Example 10)", "type": "physicochemical", "settings": "1% and 5% (w/v) free base in water"}, "[5]": {"system": "β-galactosidase-expressing E. coli strain", "experiment": "Wash resistance and biocidal activity of Py-C12 treated polyester fabric (Example 16)", "type": "cell-based", "settings": "treated with 5% (w/v) free base, E. coli 3 days at 37° C.", "method": "In a first step, 5% (w/v) Py-C12 free base in water was warmed to 50° C. to obtain a liquid solution. After incubation with the Py-C12 solution, the samples were cooled to room temperature upon which the liquid Py-C12 was converted into a solid phase and thus immobilized to the material. After drying, samples were washed with water at room temperature 10, 20, and 30 times for 15 minutes each time. Thereafter, all samples were inoculated with a β-galactosidase-expressing E. coli strain and then incubated for 3 days at 37° C."}, "[6]": {"experiment": "Modulation of the state of matter by pH shift using HCl and NaOH (Example 7)", "type": "physicochemical"}, "Staphylococcus aureus": {"system": "Staphylococcus aureus", "experiment": "Quantitative Suspension Test, modified DIN EN ISO 11930:2019 with organic load", "type": "cell-based", "settings": "0.01% (w/v) Py-C12, pH 7.0, organic load, incubation 1 day", "method": "(§1) In order to evaluate the bactericidal and fungicidal efficacy of Py-C12, Quantitative Suspension Tests were carried out under dirty conditions according to modified DIN EN ISO 11930:2019 with organic load using incubation periods of one and three days, respectively. For this purpose, 5-N-carboxamido-2-pyrrolidone-N-n-dodecyl propane-1,3-diamine (Py-C12) solutions were adjusted to pH 7.0 with HCl and subsequently diluted to corresponding test concentrations."}, "Pseudomonas aeruginosa": {"system": "Pseudomonas aeruginosa", "experiment": "Quantitative Suspension Test, modified DIN EN ISO 11930:2019 with organic load", "type": "cell-based", "settings": "0.025% (w/v) Py-C12, pH 7.0, organic load, incubation 1 day", "method": "as §1"}, "Escherichia coli": {"system": "Escherichia coli", "experiment": "Quantitative Suspension Test, modified DIN EN ISO 11930:2019 with organic load", "type": "cell-based", "settings": "0.025% (w/v) Py-C12, pH 7.0, organic load, incubation 1 day", "method": "as §1"}, "Aspergillus brasiliensis": {"system": "Aspergillus brasiliensis", "experiment": "Quantitative Suspension Test, modified DIN EN ISO 11930:2019 with organic load", "type": "cell-based", "settings": "0.5% (w/v) Py-C12, pH 7.0, organic load, incubation 3 days", "method": "as §1"}, "Candida albicans": {"system": "Candida albicans", "experiment": "Quantitative Suspension Test, modified DIN EN ISO 11930:2019 with organic load", "type": "cell-based", "settings": "0.025% (w/v) Py-C12, pH 7.0, organic load, incubation 1 day", "method": "as §1"}, "[7]": {"system": "β-galactosidase-expressing E. coli strain", "experiment": "Wash resistance and biocidal activity of Py-C12 treated beech wood sheets (Example 19)", "type": "cell-based", "settings": "treated with 1% (w/v) free base; washed with water up to 30 washing steps, 15 min each; E. coli 4 days at 37° C.", "method": "In a first step, 1% (w/v) Py-C12 free base in water) was warmed to 50° C. to obtain a liquid solution. After incubation of beech wood sheets with the Py-C12 solution, the samples were cooled to room temperature upon which the liquid Py-C12 was converted into a solid phase and thus immobilized to the material. After drying, samples were washed with water at room temperature […] for 15 minutes each time. Thereafter, all samples were inoculated with a β-galactosidase-expressing E. coli strain and then incubated for 4 days at 37° C."}, "[8]": {"experiment": "Modulation of the state of matter by salt concentration (Example 9)", "type": "physicochemical", "settings": "2% (w/v), pH 7 (HCl), NaCl 0.5 M to 3 M in water, room temperature", "excerpt": "2% (w/v) 5-N-carboxamido-2-pyrrolidone-N′-n-dodecyl propane-1,3-diamine (Py-C12) was adjusted with HCl to pH 7 and combined with different concentrations of NaCl ranging from 0.5 M to 3 M in water at room temperature. A clearly visible precipitate (white color) is observed at concentrations of 1.5 M or more (see FIG. 4)."}},
  "data": [
    {"smiles": "CCCCCCCCCCCCNCCCNC(=O)C1CCC(=O)N1", "note": "(stereo not shown) [Py-C12, 5-N-carboxamido-2-pyrrolidone-N′-n-dodecyl propane-1,3-diamine]", "values": [
      {"measurement": "state of matter", "setting": "[1]; pH 4.0, 28° C., 0.5M NaCl", "result": "X"},
      {"measurement": "state of matter", "setting": "[1]; pH 4.0, 28° C., 1.0M NaCl", "result": "X"},
      {"measurement": "state of matter", "setting": "[1]; pH 4.0, 28° C., 1.5M NaCl", "result": "X"},
      {"measurement": "state of matter", "setting": "[1]; pH 4.0, 28° C., 2.0M NaCl", "result": "X"},
      {"measurement": "state of matter", "setting": "[1]; pH 4.0, 28° C., 2.5M NaCl", "result": "o"},
      {"measurement": "state of matter", "setting": "[1]; pH 4.0, 28° C., 3.0M NaCl", "result": "o"},
      {"measurement": "state of matter", "setting": "[1]; pH 4.0, 28° C., no NaCl", "result": "X"},
      {"measurement": "state of matter", "setting": "[1]; pH 9.0, 24 °C, 0.5M NaCl", "result": "o"},
      {"measurement": "state of matter", "setting": "[1]; pH 9.0, 24 °C, 1.0M NaCl", "result": "o"},
      {"measurement": "state of matter", "setting": "[1]; pH 9.0, 24 °C, 1.5M NaCl", "result": "o"},
      {"measurement": "state of matter", "setting": "[1]; pH 9.0, 24 °C, 2.0M NaCl", "result": "o"},
      {"measurement": "state of matter", "setting": "[1]; pH 9.0, 24 °C, 2.5M NaCl", "result": "o"},
      {"measurement": "state of matter", "setting": "[1]; pH 9.0, 24 °C, 3.0M NaCl", "result": "o"},
      {"measurement": "state of matter", "setting": "[1]; pH 9.0, 24 °C, no NaCl", "result": "o"},
      {"measurement": "bacterial growth on treated silk fabric after washing", "setting": "[2]", "result": "Blue coloured bacteria only appear in control sample"},
      {"measurement": "biocidal effect of treated cotton textile after washing", "setting": "[3]; alcoholic/acidic system: 8 washes 2-propanol/1 mN HCl and 8 with water", "result": "completely colonized"},
      {"measurement": "biocidal effect of treated cotton textile after washing", "setting": "[3]; aqueous system: water 20 h at 50° C., then 16 water washes at 37° C.", "result": "maintained its biocidal effect"},
      {"measurement": "solubility in water", "setting": "[4]; 50° C.", "result": "completely soluble"},
      {"measurement": "state of matter", "setting": "[4]; room temperature", "result": "readily precipitated"},
      {"measurement": "bacterial growth on treated polyester fabric after washing", "setting": "[5]; washed 10 times with water 15 min", "result": "unstained"},
      {"measurement": "bacterial growth on treated polyester fabric after washing", "setting": "[5]; washed 20 times with water 15 min", "result": "unstained"},
      {"measurement": "bacterial growth on treated polyester fabric after washing", "setting": "[5]; washed 30 times with water 15 min", "result": "Blue coloured bacteria"},
      {"measurement": "solubility in water", "setting": "[6]; 1% (w/v) free base adjusted with HCl to pH 7, room temperature", "result": "completely soluble"},
      {"measurement": "state of matter after pH increase", "setting": "[6]; 1% (w/v), NaOH added to increase pH above 9.0, time dependent", "result": "started to precipitate"},
      {"measurement": "Germ reduction factor log10", "setting": "Staphylococcus aureus", "result": "≥5.6", "unit": "log10"},
      {"measurement": "Germ reduction factor log10", "setting": "Pseudomonas aeruginosa", "result": "≥5.6", "unit": "log10"},
      {"measurement": "Germ reduction factor log10", "setting": "Escherichia coli", "result": "≥5.5", "unit": "log10"},
      {"measurement": "Germ reduction factor log10", "setting": "Aspergillus brasiliensis", "result": 4.6, "unit": "log10"},
      {"measurement": "Germ reduction factor log10", "setting": "Candida albicans", "result": 4.2, "unit": "log10"},
      {"measurement": "bacterial growth on treated beech wood sheets after washing", "setting": "[7]", "result": "Blue coloured bacteria only appear on control sample"},
      {"measurement": "NaCl concentration at which a clearly visible precipitate is observed", "setting": "[8]", "result": "≥ 1.5", "unit": "M"}
    ]}
  ]
}
